Laboratory results from ChEMBL document CHEMBL3351337, “Cytotoxic 1,5-diaryl-3-oxo-1,5-pentadienes: an assessment and comparison of membrane permeability using Caco-2 and MDCK monolayers” (Bioorg Med Chem Lett, 2014).
Calls of active or inactive are those of the source. The rule behind the calls is not given here.

What was measured:
MDCK [1] = test: Cytotoxicity against MDCK cells assessed as reduction in cell viability; format: cell-based, Canis lupus familiaris; set-up: concentration or dose not given beside the values; details: dog
[2] = Apparent permeability from basolateral to apical side in MDCK cells at 50 uM over 2 hrs by isocratic reverse phase HPLC method; format: ADME, cell-based, Canis lupus familiaris; details: dog
MDCK [3] = test: Increase in permeability of lucifer yellow dye across MDCK cells; format: functional, cell-based; details: Canis lupus familiaris
[4] = Cytotoxicity against human Caco2 cells assessed as reduction in cell viability; format: cell-based; details: Caco-2
MDCK [5] = test: Permeability ratio, ratio of permeability from apical to basolateral side over basolateral to apical side in MDCK cells at 50 uM over 2 hrs by isocratic reverse phase HPLC method; format: ADME, cell-based, Canis lupus familiaris; details: dog
[6] = (§1) Permeability ratio, ratio of permeability from basolateral to apical side over apical to basolateral side in MDCK cells at 50 uM over 2 hrs by isocratic reverse phase HPLC method; format: ADME, cell-based, Canis lupus familiaris; details: dog, MDCK
[7] = Efflux ratio, ratio of permeability from basolateral to apical side over apical to basolateral side in human Caco2 cells at 50 uM over 2 hrs by isocratic reverse phase HPLC method; format: ADME, cell-based; details: Caco-2
[8] = Ratio of apparent permeability from apical to basolateral side in MDCK cells to apparent permeability from apical to basolateral side in human Caco2 cells; format: ADME, cell-based; details: caco-2
[9] = Apparent permeability from apical to basolateral side in human Caco2 cells at 50 uM over 2 hrs by isocratic reverse phase HPLC method; format: ADME, cell-based; details: Caco-2
[10] = Apparent permeability from apical to basolateral side in MDCK cells at 50 uM over 2 hrs by isocratic reverse phase HPLC method; format: ADME, cell-based, Canis lupus familiaris; details: dog
[11] = Apparent permeability from basolateral to apical side in human Caco2 cells at 50 uM over 2 hrs by isocratic reverse phase HPLC method; format: ADME, cell-based; details: Caco-2
[12] = Permeability ratio, ratio of permeability from apical to basolateral side over basolateral to apical side in human Caco2 cells at 50 uM over 2 hrs by isocratic reverse phase HPLC method; format: ADME, cell-based; details: caco-2, 2 h
[13] = Ratio of apparent permeability from basolateral to apical side in MDCK cells to apparent permeability from basolateral to apical side in human Caco2 cells; format: ADME, cell-based; details: caco-2
Caco-2 = test: Increase in permeability of lucifer yellow dye across human Caco2 cells; format: functional, cell-based
MDCK [14] = test: as §1; format: ADME, cell-based, Canis lupus familiaris; details: dog, mdck, 2 h, 50 µM

Papp B→A at 2 h, 50 µM [2]	Ratio (MDCK [5])	efflux ratio at 2 h, 50 µM [6]	efflux ratio at 2 h, 50 µM [7]	Ratio [8]	Papp A→B at 2 h, 50 µM [9]	Papp A→B at 2 h, 50 µM [10]	Papp B→A at 2 h, 50 µM [11]	Ratio [12]	Ratio [13]	Ratio (MDCK [14])	Structure (SMILES)	Activity (MDCK [1])	Activity (MDCK [3])	Activity [4]	Activity (Caco-2)
15.9 ×10⁻⁶ cm/s	1.24		0.83	2.34	8.42 ×10⁻⁶ cm/s	19.7 ×10⁻⁶ cm/s	7.02 ×10⁻⁶ cm/s	1.2	2.27	0.81	CN(C)c1ccc(/C=C/C(=O)/C=C/c2ccc(N(C)C)cc2)cc1	4%	Active	Non-toxic	inactive
6.28 ×10⁻⁶ cm/s	2.34	0.43	0.31	0.63	23.4 ×10⁻⁶ cm/s	14.7 ×10⁻⁶ cm/s	7.22 ×10⁻⁶ cm/s	3.24	0.87		COc1cccc(/C=C2\CNC/C(=C\c3cccc(OC)c3OC)C2=O)c1OC	4%	Active	Non-toxic	inactive
0.36 ×10⁻⁶ cm/s	9.83	0.1	0.17	1	3.53 ×10⁻⁶ cm/s	3.54 ×10⁻⁶ cm/s	0.6 ×10⁻⁶ cm/s	5.88	0.6		O=C1/C(=C/c2ccccc2F)CNC/C1=C\c1ccccc1F	4%	Active	Non-toxic	inactive
8.7 ×10⁻⁶ cm/s	2.55	0.39	0.29	1.54	14.4 ×10⁻⁶ cm/s	22.2 ×10⁻⁶ cm/s	4.12 ×10⁻⁶ cm/s	3.5	2.11		COc1ccc(/C=C2\CNC/C(=C\c3ccc(OC)c(OC)c3)C2=O)cc1OC	4%	Active	Non-toxic	inactive
0.99 ×10⁻⁶ cm/s	2.73	0.37	0.35	0.96	2.82 ×10⁻⁶ cm/s	2.7 ×10⁻⁶ cm/s	0.99 ×10⁻⁶ cm/s	2.85	1		CCOC(=O)c1ccc(/C=C2\CNC/C(=C\c3ccc(C(=O)OCC)cc3)C2=O)cc1	4%	Active	Non-toxic	inactive
13.9 ×10⁻⁶ cm/s	2.06	0.48	0.32	0.88	32.5 ×10⁻⁶ cm/s	28.7 ×10⁻⁶ cm/s	10.4 ×10⁻⁶ cm/s	3.13	1.34		COc1ccccc1/C=C1\CNC/C(=C\c2ccccc2OC)C1=O	4%	Active	Non-toxic	inactive

Second part, the compound before the results:

Structure (SMILES)	Papp B→A at 2 h, 50 µM [2]	Ratio (MDCK [5])	efflux ratio at 2 h, 50 µM [6]	efflux ratio at 2 h, 50 µM [7]	Ratio [8]	Papp A→B at 2 h, 50 µM [9]	Papp A→B at 2 h, 50 µM [10]	Papp B→A at 2 h, 50 µM [11]	Ratio [12]	Ratio [13]	Ratio (MDCK [14])	Activity (MDCK [1])	Activity (MDCK [3])	Activity [4]	Activity (Caco-2)
O=C(/C=C/c1ccccc1)c1ccccc1 [CHALCONE]	1.26 ×10⁻⁶ cm/s	3.05	0.33	0.36	1.33	2.89 ×10⁻⁶ cm/s	3.84 ×10⁻⁶ cm/s	1.05 ×10⁻⁶ cm/s	2.75	1.2		4%	Active	Non-toxic	inactive
O=C1/C(=C/c2cccc(O)c2)CNC/C1=C\c1cccc(O)c1	6.53 ×10⁻⁶ cm/s	3.35	0.3	0.38	1.42	15.4 ×10⁻⁶ cm/s	21.9 ×10⁻⁶ cm/s	5.83 ×10⁻⁶ cm/s	2.64	1.12		4%	Active	Non-toxic	inactive
CCOP(=O)(OCC)N1C/C(=C\c2cc(OC)c(OC)c(OC)c2)C(=O)/C(=C/c2cc(OC)c(OC)c(OC)c2)C1	50.3 ×10⁻⁶ cm/s	2.08	0.48	0.31	3.68	28.5 ×10⁻⁶ cm/s	105 ×10⁻⁶ cm/s	8.82 ×10⁻⁶ cm/s	3.23	5.73		4%	Active	Non-toxic	inactive
CCOP(=O)(OCC)N1C/C(=C\c2ccc(OC)c(OC)c2)C(=O)/C(=C/c2ccc(OC)c(OC)c2)C1	27.7 ×10⁻⁶ cm/s	2.25	0.44	0.15	1.14	54.7 ×10⁻⁶ cm/s	62.3 ×10⁻⁶ cm/s	8.17 ×10⁻⁶ cm/s	6.7	3.39		4%	Active	Non-toxic	inactive
